Laboratory results taken from patent publication US20050032766A1, “Use of estrogenic compounds as anti-fungal agents” (priority 2003, published 2005).

Key:
Type in all cases: cell-based
C. albicans [1] = assay: Growth inhibition of C. albicans strains by 2ME2, colony counts at 5 and 12 hours (Example 1); details: for Number of Treated Colonies at 5 hrs / Number of Treated Colonies at 12 hrs / Percentage of Inhibition at 12 hrs: 3 μM 2ME2
Method: (§1) The ability of 3 μM 2ME2 to inhibit the growth of ten different strains of C. albicans was investigated. Nine of these strains were clinically isolated and maintained by interval of subculture with Sabouraouds dextrose agar and storage at 4° C.; the other strain was purchased from ATCC. Yeast cells were cultured with nitrogen broth devoid of mammalian steroid hormones in the presence and absence of 2ME2. At 5 and 12 hours after the addition of 2ME2, a small volume of control and treated cultures was drawn and plated on Sabouraouds dextrose agar plates. The plates were placed at 37° C. and the colonies counted 24 hours later. Table I illustrates that micromolar concentrations 2ME2 are able to suppress the growth of 9/10 strains of C. albicans tested here.

C. albicans [2] = assay: Repeat of the growth inhibition test, colony counts after 5 hours of culture (Example 2)
Method: as §1
The experiment described in Example 1 was repeated with 4 of the above strains and 3 newly isolated C. albicans trains. The following counts were taken from yeast cultures grown for 5 hours in the nitrogen base media in the presence and absence of micromolar concentrations 2ME2.

C. albicans [3] = assay: C. albicans colony counts with 17β-estradiol in presence and absence of 2ME2 (Example 3); details: 5 hours; for Number of Colonies treated with estradiol and 2ME2: 1 μM 2ME2 with 1 nM 17β-estradiol; for Percentage of Inhibition: 1 μM 2ME2 with 1 nM 17β-estradiol vs estradiol alone; for Number of Colonies treated with estradiol: 1 nM 17β-estradiol alone
Method: as §1
In a separate experiment, 1 nM 17β-estradiol was added to the cultures of C. albicans cells in the presence and absence of 1 μM 2ME2 and the number of colonies of yeast cells cultured for 5 hours with the above steroids were counted as previously described.

[4] = strain 2, micromolar concentrations 2ME2
[5] = strain 5, micromolar concentrations 2ME2
[6] = strain 8, micromolar concentrations 2ME2
[7] = strain 10, micromolar concentrations 2ME2
[8] = strain 11, micromolar concentrations 2ME2
[9] = strain 12, micromolar concentrations 2ME2
[10] = strain ATCC, micromolar concentrations 2ME2

SMILES: COc1cc2c(cc1O)CC[C@@H]1[C@@H]2CC[C@]2(C)[C@@H](O)CC[C@@H]12 [2ME2, 2-Methoxyestradiol]
- strains of C. albicans whose growth is suppressed (C. albicans [1]; micromolar concentrations 2ME2, ten strains tested): 9/10
- Number of Treated Colonies at 5 hrs (C. albicans [1]; strain 1): 16
- Number of Treated Colonies at 12 hrs (C. albicans [1]; strain 1): 50
- Percentage of Inhibition at 12 hrs (C. albicans [1]; strain 1): 57%
- Number of Treated Colonies at 5 hrs (C. albicans [1]; strain 2): 51
- Number of Treated Colonies at 12 hrs (C. albicans [1]; strain 2): >400
- Number of Treated Colonies at 5 hrs (C. albicans [1]; strain 3): 14
- Number of Treated Colonies at 12 hrs (C. albicans [1]; strain 3): 86
- Percentage of Inhibition at 12 hrs (C. albicans [1]; strain 3): >78%
- Number of Treated Colonies at 5 hrs (C. albicans [1]; strain 4): 17
- Number of Treated Colonies at 12 hrs (C. albicans [1]; strain 4): 113
- Percentage of Inhibition at 12 hrs (C. albicans [1]; strain 4): >72%
- Number of Treated Colonies at 5 hrs (C. albicans [1]; strain 5): 14
- Number of Treated Colonies at 12 hrs (C. albicans [1]; strain 5): 85
- Percentage of Inhibition at 12 hrs (C. albicans [1]; strain 5): >79%
- Number of Treated Colonies at 5 hrs (C. albicans [1]; strain 6): 32
- Number of Treated Colonies at 12 hrs (C. albicans [1]; strain 6): 131
- Percentage of Inhibition at 12 hrs (C. albicans [1]; strain 6): >67%
- Number of Treated Colonies at 5 hrs (C. albicans [1]; strain 7): 13
- Number of Treated Colonies at 12 hrs (C. albicans [1]; strain 7): 148
- Percentage of Inhibition at 12 hrs (C. albicans [1]; strain 7): >63%
- Number of Treated Colonies at 5 hrs (C. albicans [1]; strain 8): 14
- Number of Treated Colonies at 12 hrs (C. albicans [1]; strain 8): 98
- Percentage of Inhibition at 12 hrs (C. albicans [1]; strain 8): >75%
- Number of Treated Colonies at 5 hrs (C. albicans [1]; strain 9): 15
- Number of Treated Colonies at 12 hrs (C. albicans [1]; strain 9): 90
- Percentage of Inhibition at 12 hrs (C. albicans [1]; strain 9): >77%
- Number of Treated Colonies at 5 hrs (C. albicans [1]; strain ATCC): 15
- Number of Treated Colonies at 12 hrs (C. albicans [1]; strain ATCC): 67
- Percentage of Inhibition at 12 hrs (C. albicans [1]; strain ATCC): 70%
- Percentage of Inhibition (C. albicans [2]; [4]): 70%
- Treated Colonies (C. albicans [2]; [4]): 26 ± 7
- Percentage of Inhibition (C. albicans [2]; [5]): 41%
- Treated Colonies (C. albicans [2]; [5]): 58 ± 7
- Percentage of Inhibition (C. albicans [2]; [6]): 50%
- Treated Colonies (C. albicans [2]; [6]): 59 ± 7
- Percentage of Inhibition (C. albicans [2]; [7]): 0%
- Treated Colonies (C. albicans [2]; [7]): 51 ± 19
- Percentage of Inhibition (C. albicans [2]; [8]): 14%
- Treated Colonies (C. albicans [2]; [8]): 74 ± 16
- Percentage of Inhibition (C. albicans [2]; [9]): 50%
- Treated Colonies (C. albicans [2]; [9]): 77 ± 12
- Percentage of Inhibition (C. albicans [2]; [10]): 44%
- Treated Colonies (C. albicans [2]; [10]): 36 ± 6
- Number of Colonies treated with estradiol and 2ME2 (C. albicans [3]; strain 2): 64 ± 2
- Percentage of Inhibition (C. albicans [3]; strain 5): 43%
- Number of Colonies treated with estradiol and 2ME2 (C. albicans [3]; strain 5): 39 ± 4
- Percentage of Inhibition (C. albicans [3]; strain 8): 48%
- Number of Colonies treated with estradiol and 2ME2 (C. albicans [3]; strain 8): 25 ± 3
- Percentage of Inhibition (C. albicans [3]; strain 10): 56%
- Number of Colonies treated with estradiol and 2ME2 (C. albicans [3]; strain 10): 23 ± 5
- Percentage of Inhibition (C. albicans [3]; strain 11): 31%
- Number of Colonies treated with estradiol and 2ME2 (C. albicans [3]; strain 11): 55 ± 6
- Percentage of Inhibition (C. albicans [3]; strain 12): 53%
- Number of Colonies treated with estradiol and 2ME2 (C. albicans [3]; strain 12): 56 ± 1
- Percentage of Inhibition (C. albicans [3]; strain ATCC): 55%
- Number of Colonies treated with estradiol and 2ME2 (C. albicans [3]; strain ATCC): 28 ± 12

SMILES: C[C@]12CC[C@@H]3c4ccc(O)cc4CC[C@H]3[C@@H]1CC[C@@H]2O [estradiol, 17β-estradiol, reference compound]
- Number of Colonies treated with estradiol (C. albicans [3]; strain 2): 58 ± 5
- Number of Colonies treated with estradiol (C. albicans [3]; strain 5): 69 ± 13
- Number of Colonies treated with estradiol (C. albicans [3]; strain 8): 48 ± 7
- Number of Colonies treated with estradiol (C. albicans [3]; strain 10): 52 ± 2
- Number of Colonies treated with estradiol (C. albicans [3]; strain 11): 80 ± 1
- Number of Colonies treated with estradiol (C. albicans [3]; strain 12): 120
- Number of Colonies treated with estradiol (C. albicans [3]; strain ATCC): 63 ± 8
